Results as given in patent US10174033B2, “N6-substituted adenosine derivatives and N6-substituted adenine derivatives and uses thereof” (INSTITUTE OF MATERIA MEDICA, CHINESE ACADEMY OF MEDICAL …, priority 2009, dated 2019).

The compounds below were run on male ICR-mice (assay: Potentiation of sodium pentobarbital sleeping time test). Settings: oral, 5 mg/kg, 38 mg/kg sodium pentobarbital 60 min later.
Type: in vivo
Method: Effects of N^6-substituted adenosine derivatives and/or N^6-substituted adenine derivatives on sodium pentobarbital-induced sleeping time in mice.
Name of Experiment: Potentiation of sodium pentobarbital sleeping time test.
Method of Experiment: Groups of 8-10 male ICR-mice with an average weight of 18-22 g were used. They were dosed orally or i.p. with the test compound or the vehicle. Thirty min after i.p. injection or 60 min after oral dosing 38 mg/kg sodium pentobarbital were injected intravenously. The latency and duration of sleep (loss of righting reflex) were recorded. The percentage of prolongation of sleeping time was calculated as: [(sleeping time of experimental group)−(sleeping time of control group)]/(sleeping time of control group)×100%.
In the case of `COc1ccc([C@@H](C)Nc2ncnc3c2ncn3[C@@H]2O[C@H](CO)[C@@H](O)[C@H]2O)cc1` [Example 62, N^6-[(R)-1-(4-methoxyphenyl)-ethyl]-adenosine], the “Sleep prolonging rate (%)” value is reported as 66%.
In the case of `COc1cc(C(C)Nc2ncnc3c2ncn3[C@@H]2O[C@H](CO)[C@@H](O)[C@H]2O)ccc1O` (mixture of isomers) [Example 50, N^6-[(±)-1-(3-methoxy-4-hydroxy-phenyl)-ethyl]-adenosine], the “Sleep prolonging rate (%)” value is reported as 119%.
For `CCCCCCCC(=O)OCC1OC(n2cnc3c(NCc4ccc5c(c4)OCO5)ncnc32)C2OC(C)(C)OC12` (stereo not drawn) [N^6-(3,4-methylenedioxybenzyl)-2′,3′-O-isopropylidene-adenosine-5′-caprylate], the “Sleep prolonging rate (%)” value was 4%.
In the case of `COC(=O)[C@@H](Cc1ccccc1)Nc1ncnc2c1ncn2[C@@H]1O[C@H](CO)C(O)C1O` (stereo partly drawn) [Example 105, N-(6-adenosine)-(D)-phenylalanine methyl ester], the “Sleep prolonging rate (%)” value is reported as 2%.
In the case of `COc1cccc([C@@H](C)Nc2ncnc3c2ncn3[C@@H]2O[C@H](CO)[C@@H](O)[C@H]2O)c1` [Example 65, N^6-[(R)-1-(3-methoxyphenyl)-ethyl]-adenosine], the “Sleep prolonging rate (%)” value is reported as 160%.
`CCOC(=O)[C@H](Cc1c[nH]c2ccccc12)Nc1ncnc2c1ncn2[C@@H]1O[C@H](CO)C(O)C1O` (stereo partly drawn) [Example 113, N-(6-adenosine)-(L)-tryptophan ethyl ester] was tested, and the “Sleep prolonging rate (%)” value was 7%.
`C[C@@H](Nc1ncnc2c1ncn2[C@@H]1O[C@H](CO)[C@@H](O)[C@H]1O)c1ccc(Cl)cc1` [Example 68, N^6-[(R)-1-(4-chlorophenyl)-ethyl]-adenosine] was tested, and the “Sleep prolonging rate (%)” value was 103%.
`CC(C(O)c1ccccc1)N(C)c1ncnc2c1ncn2[C@@H]1O[C@H](CO)C(O)C1O` (mixture of isomers) [Example 137, N^6-methyl-N^6-[(±)-2-(1-hydroxy-1-phenyl)-propyl]-adenosine] was tested, and the “Sleep prolonging rate (%)” value was 92%.
For `OC[C@H]1O[C@@H](n2cnc3c(NC(c4ccccc4)c4ccccc4)ncnc32)[C@H](O)[C@@H]1O` [Example 95, N^6-(diphenylmethyl)-adenosine], the “Sleep prolonging rate (%)” value was 16%.
For `CC[C@@H](Nc1ncnc2c1ncn2[C@@H]1O[C@H](COC(C)=O)C(O)C1O)c1ccccc1` (stereo partly drawn) [Example 77, N^6-[(R)-1-(phenyl)-propyl]-adenosine-5′-acetate], the “Sleep prolonging rate (%)” value was 590%.
In the case of `CN(Cc1ccccc1)c1ncnc2c1ncn2[C@@H]1O[C@H](CO)[C@@H](O)[C@H]1O` [Example 133, N^6-methyl-N^6-benzyl-adenosine], the “Sleep prolonging rate (%)” value is reported as 27%.
For `COc1cccc([C@H](C)Nc2ncnc3c2ncn3[C@@H]2O[C@H](CO)[C@@H](O)[C@H]2O)c1` [Example 66, N^6-[(S)-1-(3-methoxyphenyl)-ethyl]-adenosine], the “Sleep prolonging rate (%)” value was 39%.
`CCCOC[C@H]1O[C@@H](n2cnc3c(NCc4ccc5c(c4)OCO5)ncnc32)C(O)C1O` (stereo partly drawn) [Example 35, N^6-(3,4-methylenedioxybenzyl)-adenosine-5′-propyl ether] was tested, and the “Sleep prolonging rate (%)” value was 36%.
`CCN(CCO)c1ncnc2c1ncn2[C@@H]1O[C@H](CO)[C@@H](O)[C@H]1O` [Example 139, N^6-ethyl-N^6-(2-hydroxyethyl)-adenosine] was tested, and the “Sleep prolonging rate (%)” value was 5%.
With `OC[C@H]1O[C@@H](n2cnc3c(NC(c4ccccc4)C4CCCCC4)ncnc32)C(O)C1O` (mixture of isomers) [Example 93, N^6-[(±)-1-(cyclohexylphenyl)-methyl]-adenosine] the “Sleep prolonging rate (%)” value was 17%.
With `CCOC(=O)[C@@H](Cc1ccc(O)cc1)Nc1ncnc2c1ncn2[C@@H]1O[C@H](CO)C(O)C1O` (stereo partly drawn) [Example 108, N-(6-adenosine)-(D)-tyrosine ethyl ester] the “Sleep prolonging rate (%)” value was 32%.
In the case of `CC[C@H](Nc1ncnc2c1ncn2[C@@H]1O[C@H](COC(C)=O)C(O)C1O)c1ccccc1` (stereo partly drawn) [Example 80, N^6-[(S)-1-(phenyl)-propyl]-adenosine-5′-acetate], the “Sleep prolonging rate (%)” value is reported as 24%.
`Cc1ccc([C@@H](C)Nc2ncnc3c2ncn3[C@@H]2O[C@H](CO)[C@@H](O)[C@H]2O)cc1` [Example 59, N^6-[(R)-1-(4-methylphenyl)-ethyl]-adenosine] was tested, and the “Sleep prolonging rate (%)” value was 99%.
